In patent publication US8889701B1, “Substituted (S)-(2R,3R,5R)-3-hydroxy-(5-pyrimidin-1-yl)tetrahydrofuran-2-ylmethyl aryl phosphoramidate” (Alla Chem, LLC, priority 2013, dated 2014) one finds EC50 data, which are given here for 10 compounds.

One assay concerns HCV replicon (genotype 1b, Con1 isolate) in human hepatoma cell line Huh7. Briefly: HCV replicon assay (antiviral activity, anti-HCV core ELISA readout). The class given is cell-based. The settings on record: Hepatitis C virus, Huh-7, 72 h, read-out: EC50, activity against HCV genotype 1b. The protocol:
The HCV replicon assay was used to determine the antiviral activity of substituted phosphoramidic acid esters of the general formula 1, 1.1, 1.2, 2, 2.1, and 2.2 (test compounds). The test cell line used in the HCV Replicon Assay was a human hepatoma cell line Huh7 incorporating the HCV replicon (genotype 1b, Con1 isolate). 96-well plates were seeded with cells at a density of 7.5×10^3 cells per well in 50 μl of assay media. Test compound stock solution was made up freshly in assay medium (DMEM 1×, Cellgro; cat. #10-013-CV) as a 2× stock. A total of 11 serial 3-fold dilutions of test compounds were prepared from the 2× stock in assay media ranging from 20 nM-0.2 pM final concentrations. At least 4 hours after cells were seeded, compound treatment was initiated by adding 50 μl of compound dilution to the plates. […] The final DMSO concentration was 0.5%. Cells and inhibitors incubated for 3 days at 37° C./5% CO2. Media was removed from the plates via gentle tapping. Cells were fixed with 100 μl 1:1 acetone:methanol for 1 minute, washed three times with PBS buffer, and then blocked with 150 μl/well 10% Fetal Bovine Serum (FBS) in PBS for 1 hour at room temperature. Cells were washed three times with PBS buffer, and incubated with 100 μl/well anti-hepatitis C core mAb (Affinity BioReagents; cat. # MA1-080, 1 mg/ml stock diluted 1:4,000 in 10% FBS-PBS) for 2 hours at 37° C. Cells were washed three times with PBS and incubated with 100 μl/well HRP-Goat Anti-Mouse antibody (diluted 1:3.500 in 10% FBS-PBS) for 1 hour at 37° C. Cells were washed three times with PBS and developed with 100 μl/well OPD solution (1 OPD tablet+12 ml citrate/phosphate buffer+5 μl 30% H2O2 per plate) for 30 minutes in the dark at room temperature. The reaction was stopped with 100 μl/well of 2N H2SO4, and absorbance measured at A490 X on a Victor^3 V 1420 multilabel counter (Perkin Elmer). The EC50 values were calculated for test compounds from the resulting best-fit equations determined by Xlfit software.
In general terms: Replicon systems follow genome replication, usually without infectious particles.
What is called EC50 is the concentration giving half of the maximal effect. `CC(=O)Nc1ccn([C@@H]2O[C@H](CO[P@@](=O)(N[C@H]3CCOC3=O)Oc3ccccc3)[C@@H](OC(C)=O)C2(F)F)c(=O)n1` [1(4), (2R,3R,5R)-5-(4-acetamido-2-oxopyrimidin-1(2H)-yl)-4,4-difluoro-2-(((S)—((S)-2-oxotetrahydrofuran-3-ylamino)(phenoxy)phosphoryloxy)methyl)tetrahydrofuran-3-yl acetate]: the EC50 was 42.1 nM.

On to `CN1CCC(NP(=O)(OC[C@H]2O[C@@H](n3ccc(=O)[nH]c3=O)C(F)(F)[C@@H]2O[Si](C)(C)C(C)(C)C)Oc2ccccc2)C1=O` (stereo partly drawn) [1.1.(4), ((2R,3R,5R)-3-(tert-butyldimethylsilyloxy)-5-(2,4-dioxo-3,4-dihydropyrimidin-1(2H)-yl)-4,4-difluorotetrahydrofuran-2-yl)methyl phenyl 1-methyl-2-oxopyrrolidin-3-ylphosphoramidate], for which the half-maximal effective concentration (EC50) turned out to be 40.5 nM.

With `CN1CCCC(NP(=O)(OC[C@H]2O[C@@H](n3ccc(N)nc3=O)C(F)(F)[C@@H]2O)Oc2ccccc2)C1=O` (stereo partly drawn) [1(8), ((2R,3R,5R)-5-(4-amino-2-oxopyrimidin-1(2H)-yl)-4,4-difluoro-3-hydroxytetrahydrofuran-2-yl)methyl phenyl 1-methyl-2-oxopiperidin-3-ylphosphoramidate], the EC50 worked out at 873 nM.

For the compound `CC(=O)O[C@@H]1[C@@H](COP(=O)(N[C@H]2CCOC2=O)Oc2ccccc2)O[C@@H](n2ccc(N)nc2=O)C1(F)F` (stereo partly drawn) [1.2.(2), (2R,3R,5R)-5-(4-amino-2-oxopyrimidin-1(2H)-yl)-4,4-difluoro-2-((((S)-2-oxotetrahydrofuran-3-ylamino)(phenoxy)phosphoryloxy)methyl)tetrahydrofuran-3-yl acetate], the EC50 was 27 nM.

Consider `O=C1OCCC1NP(=O)(OC[C@H]1O[C@@H](n2ccc(=O)[nH]c2=O)C(F)(F)[C@@H]1O)Oc1ccccc1` (stereo partly drawn) [1.1.(1), ((2R,3R,5R)-5-(2,4-dioxo-3,4-dihydropyrimidin-1(2H)-yl)-4,4-difluoro-3-hydroxytetrahydrofuran-2-yl)methyl phenyl 2-oxotetrahydrofuran-3-ylphosphoramidate], for which the EC50 came to 459 nM.

For `C[C@@]1(F)[C@H](O)[C@@H](COP(=O)(N[C@H]2CCOC2=O)Oc2ccccc2)O[C@H]1n1ccc(=O)[nH]c1=O` (stereo partly drawn) [1.1.(2), ((2R,3R,4R,5R)-5-(2,4-dioxo-3,4-dihydropyrimidin-1(2H)-yl)-4-fluoro-3-hydroxy-4-methyltetrahydrofuran-2-yl)methyl phenyl (S)-2-oxotetrahydrofuran-3-ylphosphoramidate], the EC50 was 274 nM.

On to `CN1CCCC(NP(=O)(OC[C@H]2O[C@@H](n3ccc(NC(=O)OCc4ccccc4)nc3=O)C(F)(F)[C@@H]2OC(=O)OCc2ccccc2)Oc2ccccc2)C1=O` (stereo partly drawn) [1(7), benzyl 1-((2R,4R,5R)-4-(benzyloxycarbonyloxy)-3,3-difluoro-5-(((1-methyl-2-oxopiperidin-3-ylamino)(phenoxy)phosphoryloxy)methyl)tetrahydrofuran-2-yl)-2-oxo-1,2-dihydropyrimidin-4-ylcarbamate], for which the EC50 turned out to be 552 nM.

Turning to `Nc1ccn([C@@H]2O[C@H](COP(=O)(N[C@H]3CCOC3=O)Oc3ccccc3)[C@@H](O)C2(F)F)c(=O)n1` (some centres unmarked) [1.2.(1)], the EC50 was 19.8 nM.

Turning to `CC(C)OC(=O)[C@H](C)NP(=O)(OC[C@H]1O[C@@H](n2ccc(=O)[nH]c2=O)[C@](C)(F)[C@@H]1O)Oc1ccccc1` (some centres unmarked) [PSI-7851, reference compound], the EC50 was 59.4 nM.

Turning to `CN1CCC(N[P@](=O)(OC[C@H]2O[C@@H](n3ccc(N)nc3=O)C(F)(F)[C@@H]2O)Oc2ccccc2)C1=O` (some centres unmarked) [2.2.(1)], the concentration giving a half-maximal response (EC50) was 219 nM.

Another assay has the same test system.
Assay: not given
Conditions: literature value, Murakami et al., J. Biol. Chem. 285(45), 34337-34347 (2010); read-out: EC50 of known inhibitor PSI-7851 (literature); cited from earlier work.
As to `CC(C)OC(=O)[C@H](C)NP(=O)(OC[C@H]1O[C@@H](n2ccc(=O)[nH]c2=O)[C@](C)(F)[C@@H]1O)Oc1ccccc1` (some centres unmarked) [PSI-7851, reference compound], the EC50 is 75 nM.
